Data set [1] in a line: Refinement of intrinsic and salt solubility with pDISOL-X. From the text: To develop a solution speciation model, the experimental data of log S—pH were used as input into the computer program pDISOL-X [30]. The computational algorithm considers the contributions of all species present in solution, including all buffer components. The program derives its own implicit solubility equations internally, given any practical number of equilibria and estimated constants. The equilibrium constants are subsequently refined by weighted nonlinear least-squares regression. The method can test for the presence of specific buffer drug species. The program assumes an initial condition of a suspension of the solid drug in a solution, ideally with the suspension saturated over a wide range of pH. The software calculates the species distribution as a consequence of a sequence of additions of standardized strong-acid titrant HCl to simulate the suspension pH-speciation down to pH ~ 0, the staging point for the subsequent operation. […] The ionic strength is rigorously calculated at each step, and pKa values (as well as the solubility products and the aggregation and complexation constants) are adjusted accordingly. At the end of the pH-speciation simulation, the calculated log S vs. pH curve is compared to log S vs. pH measured. A log S-weighted nonlinear least squares refinement begins to refine the proposed equilibrium model, using analytical expressions for the differential equations. The process is repeated until the differences between calculated and measured log S values reach a minimum.

Data set [2] is described as follows: Dissociation constant (pKa) by UV-spectrophotometric method. The class given is physicochemical. As to conditions: aqueous buffer solutions. On the procedure:
The pH measurements were performed using a sensiON™ (PH31) pH meter. Standard solutions of JM-20 ([…] were prepared adding 0.2 mL of the stock solution in 9.8 mL of each buffer. UV-VIS spectra were recorded on a UV-Vis Spectrophotometer (Thermo Fisher GENESYS™ 10S, Shanghai, China) between 200 and 400 nm (2 nm of resolution). All spectrophotometric data were processed in Microsoft Excel (2018).
The experimental pKa was determined using the spectrophotometric method proposed by Salgado et al.. The absorbance spectra of the JM-20 were acquired at different pH levels. The wavelengths of maximum absorbance were determined at each pH. Using a plot of observed absorbance versus pH at these analytical wavelengths (262, 316 and 355 nm), the pKa values were calculated. To determine these points, the linear equations of the two points closest to the crossing at each curve were solved. The whole procedure was carried out in triplicate and at room temperature (23 ± 2 °C).

Details of data set [3]: method as in product owner (technical report). As to conditions: ref product owner (technical report); cited from earlier work.
Data set [4] is described as follows: Human oral fraction absorbed estimated from rat intestinal permeability. As to conditions: calculated from rat permeability values in all segments (whole small intestine). An excerpt:
The permeability values obtained in the different intestinal sections (See Table 4) corroborate the results obtained in the cell lines. […] This supports that if a compound has a high absorbed dose fraction, it will have a high-permeability, not necessarily in the jejunum, but somewhere along the relevant intestinal absortive regions. Correlations between permeability values in the rat small intestine (whole or segments) obtained by Doluisio’s method and their correlation with the orally absorbed fraction in humans were previously published. In fact, Fabs can be calculated considering the permeability values in all segments (whole small intestine) and the estimated oral absorbed fraction was 85.12%. According to this property, the drug may be a good candidate to be formulated for oral administration.

Data set [5] in a line: Apparent permeability across Caco-2 monolayers. It counts as in vitro ADME. To be noted: human. On the procedure: MDCK (Madin–Darby Canine Kidney) cells, their transfected clone MDCK-MDR1, and Caco-2 cells were grown in the modified Dulbecco Eagle medium added with L-glutamine, fetal bovine serum and penicillin−streptomycin. The number of cells seeded in transwells with a surface area of 4.2 cm^2 depended on the cell line: 250,000 cells/cm^2 for MDCK and Caco-2 and 150,000 cells/cm^2 for MDCK-MDR1. Experiments were performed between 7 and 9 days for MDCK and MDCK-MDR1 and between 19 and 21 for Caco-2 cells after seeding. Prior to drug placement, cell monolayer integrity was assessed by measuring transepithelial electrical resistance (TEER). Transport studies were performed on an orbital shaker at 37 °C and 50 rpm. Four samples of 200 μL were taken from the receptor side at 0, 15, 30, 60 and 90 min, and two samples from the donor compartment at the beginning and end of the experiment. A standard experiment was performed with the same buffer for the apical and basolateral compartments in the apical to basolateral (A-B) and basolateral to apical (B-A) directions. The drug concentration was 100 μM in all experiments and samples were analyzed immediately by HPLC. The retention time was 2.3 min at maximum wavelengths (λmax = 260 nm). The conditions used for HPLC analyses were: mobile phase composed of a mixture of 50% H2O (95% H2O + 0.5% trifluoroacetic) and another 50% HPLC-grade methanol. The stationary phase composed of a Phenomenex® KJ0-4282 column, with two 2 μm filters filled with C-18 microparticles of 40 μm size and a Nova Pak C-18 stainless-steel column of 150 mm length. […] The lower limit of quantitation of JM-20 was adequate to interpolate the values obtained in the samples.
The apparent permeability coefficient was calculated according to the following Equation (2):(2) Creceiver,t=Qtotal/Vreceiver+Vdonor+Creceiver,t−1·f−Qtotal/Vreceiver+Vdonor·e^−Peff0,1·S·1/Vreceiver+1/Vdonor·Δt where Creceiver,t is the concentration of the drug in the receiver compartment at the time t, Qtotal is the total amount of drug in receiver and donor chambers, Vreceiver and Vdonor are the volumes of receiver and donor chamber, respectively, Creceiver,t−1 is the concentration of the drug in receiver compartment at the previous time, f is the replacement dilution factor of the sample, S is the surface area of the monolayer, Δt is the time interval and Peff is the coefficient of permeability, as was described by Mangas-Sanjuan et al. All calculations were developed in Microsoft® Excel (2018).
(In general: Passage across Caco-2 layers is used to estimate intestinal permeability.)

Like-named read-outs stand apart in the source and are kept apart here.

Take `CCOC(=O)C1=C(C)NC2=C(C=Nc3ccccc3N2)C1c1ccccc1[N+](=O)[O-]` (centres unmarked) [JM-20, 3-ethoxycarbonyl-2-methyl-4-(2-nitrophenyl)-4,11-dihydro-1H-pyrido [2,3-b][1,5] benzodiazepine]: the solubility – broadly, the concentration that dissolves in the medium under given conditions – in data set [1] (37 °C, read-out: So, intrinsic solubility calculated by pDISOL-X) was 12 µg/mL; in data set [1] (aqueous buffer, pH 3.5, 37 °C, read-out: Solubility calculated by pDISOL-X) it was 14.3 µg/mL; in data set [1] (aqueous buffer, pH 4.0, 37 °C, read-out: Solubility calculated by pDISOL-X), 18.9 µg/mL; in data set [1] (aqueous buffer, pH 4.5, 37 °C, read-out: Solubility calculated by pDISOL-X), 74.9 µg/mL; in data set [1] (aqueous buffer, pH 6.8, 37 °C, read-out: Solubility calculated by pDISOL-X) it was 12.5 µg/mL; in data set [1] (aqueous buffer, pH 7.4, 37 °C, read-out: Solubility calculated by pDISOL-X) it was 11.9 µg/mL. Besides, the solubility in data set [1] (pH 1.2, 37 °C, read-out: Solubility calculated by pDISOL-X) was 3.3 µg/mL. Moreover, the pKa in data set [2] (pH 2 to 12, UV-spectrophotometric, 23 °C, ionic strength approximately 0.1 M, read-out: pKa1 (base)) was 5.48 ± 0.19; in data set [2] (pH 2 to 12, UV-spectrophotometric, 23 °C, ionic strength approximately 0.1 M, read-out: pKa2 (acid)) it was 10.5 ± 0.17; in data set [2] (pH 2 to 12, measured pKa transformed to 37 °C (estimated), read-out: pKa1 at 37 °C), 5.54; in data set [2] (pH 2 to 12, measured pKa transformed to 37 °C (estimated), read-out: pKa2 at 37 °C), 10.3. In data set [3], the “Stability in DMSO and absolute ethanol” value is recorded as “stable”. The “Estimated oral absorbed fraction (Fabs) in humans” value in data set [4] was 85.12%. For the same molecule, the apparent permeability from apical to basolateral (Papp A→B) (in general, the apparent permeability from the apical to the basolateral side of a cell layer) at 90 min, 100 µM in data set [5] (Caco-2, Caco-2, 100 μM, 37 °C, stirring at 50 rpm) is 38.3 ± 1.8 ×10⁻⁶ cm/s. Further, the Papp at 90 min, 100 µM in data set [5] (Caco-2, read-out: Permeability, Caco-2 value (abstract)) is 38 ×10⁻⁶ cm/s. Besides, the Papp B→A (in general, the apparent permeability from the basolateral to the apical side of a cell layer) at 90 min, 100 µM in data set [5] (Caco-2, 100 μM, 37 °C, stirring at 50 rpm) came to 8.5 ± 2.4 ×10⁻⁶ cm/s. In addition, the efflux ratio (commonly a quotient of directional permeabilities that is used to spot active efflux) at 90 min, 100 µM in data set [5] (Caco-2 bidirectional transport) turned out to be 0.13.

Values taken from paper PMC8780741, “Integration of In Silico, In Vitro and In Situ Tools for the Preformulation and Characterization of a Novel Cardio-Neuroprotective Compound during the Early Stages of Drug Development” (Pharmaceutics, 2022).
